This note sets out measurements from PubChem BioAssay (NCI).

Among the test systems are KM20L2 colon; DMS 273 small cell lung; SF-268 CNS; HT29 colon; UACC-62 melanoma; SNB-78 CNS; CAKI-1 renal; XF 498 CNS; M19-MEL melanoma; OVCAR-4 ovarian; ACHN renal; LXFL 529 NSCLC; DU-145 prostate.
What all share (test): NCI tumour cell line growth inhibition, 48 h

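Method: 48-hour compound exposure of cells in 96-well plates, five concentrations, linear interpolation of endpoints. TGI denotes the concentration required for complete inhibition of growth.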

As for `N/C(=N\N=C\c1ccc2c(c1)OCCO2)NO`, the TGI with KM20L2 colon was over 52 µM; in the experiment with DMS 273 small cell lung, 57.6 µM; in the experiment with SF-268 CNS it was over 49.1 µM; with HT29 colon, 33.6 µM; in the experiment with UACC-62 melanoma, over 34.4 µM; in the experiment with SNB-78 CNS it was over 100 µM. For the same molecule, the TGI in the experiment with CAKI-1 renal was over 100 µM; with XF 498 CNS it was over 30.6 µM; in the experiment on M19-MEL melanoma, 98.6 µM; in the experiment with OVCAR-4 ovarian, over 100 µM.

In the case of `O=C1c2ccc(O)c(O)c2C(=O)c2c(O)ccc(O)c21`, the TGI in the experiment with KM20L2 colon is 70.8 µM; in the experiment with DMS 273 small cell lung it was 61.7 µM; in the experiment with SF-268 CNS, over 100 µM; with HT29 colon, over 100 µM; with UACC-62 melanoma, 41.6 µM; in the experiment with SNB-78 CNS, over 100 µM. Further, the TGI was 52.5 µM in the experiment with ACHN renal, over 100 µM in the experiment with LXFL 529 NSCLC, over 100 µM in the experiment on M19-MEL melanoma and 6.53 µM with OVCAR-4 ovarian.

Consider `Nc1nc2c3nc(Nc4ccccc4)sc3nc(=O)n2c2sc(Nc3ccccc3)nc12`, for which the TGI with KM20L2 colon, in the experiment with DMS 273 small cell lung, in the experiment on SF-268 CNS, in the experiment on HT29 colon, in the experiment on UACC-62 melanoma and in the experiment on SNB-78 CNS was over 100 µM throughout. The TGI in the experiment on XF 498 CNS, in the experiment with ACHN renal, in the experiment with LXFL 529 NSCLC, in the experiment on M19-MEL melanoma and in the experiment on OVCAR-4 ovarian was over 100 µM throughout.

As for `CCCCCCCCCCCCCCCCCCN(C)CC(COP(=O)([O-])OCC[N+](C)(C)C)OC` (stereo not given), the TGI in the experiment with KM20L2 colon is 4.16 µM; in the experiment on DMS 273 small cell lung, 5.4 µM; in the experiment with DU-145 prostate, over 100 µM; in the experiment on SF-268 CNS it was 27.5 µM; in the experiment with HT29 colon, 15 µM; with UACC-62 melanoma it was 32.9 µM. For the same molecule, the TGI with SNB-78 CNS is 21.3 µM; in the experiment on CAKI-1 renal, 20.9 µM; in the experiment with XF 498 CNS it was 29.9 µM; in the experiment on ACHN renal, 48.8 µM; in the experiment with LXFL 529 NSCLC it was 21.6 µM; in the experiment with M19-MEL melanoma, 13.1 µM. In addition, in the experiment on OVCAR-4 ovarian, the TGI is 29.6 µM.

Consider `CC(=O)O[C@H]1C(=O)[C@@]2(C)C(C(OC(=O)c3ccccc3)C3[C@@H](O)C(OC(=O)[C@@H](O)[C@H](NC(=O)c4ccccc4)c4ccc(C(F)(F)F)cc4)C(C)=C1C3(C)C)[C@]1(OC(C)=O)CO[C@@H]1C[C@@H]2O` (stereo not given in full), for which the TGI in the experiment with KM20L2 colon, with DMS 273 small cell lung, in the experiment with SF-268 CNS, with HT29 colon, in the experiment with UACC-62 melanoma and in the experiment with SNB-78 CNS was over 25 µM throughout. Moreover, the TGI with CAKI-1 renal, in the experiment on ACHN renal, in the experiment on LXFL 529 NSCLC and in the experiment on M19-MEL melanoma was over 25 µM throughout.

For `Cc1cc2c([nH]c3ccccc32)c2c1OC(C)(C)C1C3CC(C)(C)Oc4c(C)cc5c6ccccc6n(c5c43)C21` (stereo not given), the TGI in the experiment on KM20L2 colon, with DMS 273 small cell lung, in the experiment on SF-268 CNS, in the experiment on HT29 colon, with UACC-62 melanoma and in the experiment with SNB-78 CNS was over 100 µM throughout. In addition, the TGI in the experiment with CAKI-1 renal, with ACHN renal, with LXFL 529 NSCLC, with M19-MEL melanoma and with OVCAR-4 ovarian was over 100 µM in each case.
